Results published in patent publication US20250170106A1, “USE OF SU3327 IN PREPARATION OF MEDICAMENT FOR ENHANCING EFFICACY OF POLYMYXIN AGAINST BACTERIAL INFECTION” (XIAMEN HANLIXIN PHARMACEUTICAL CO., LTD., priority 2022, published 2025).

Tests used:
Akt = conditions: cited from earlier work
K. pneumoniae 1202-45-5 [1] = assay: Thigh infection model of neutropenic BALB/c mice infected with drug resistant bacteria; format: in vivo; conditions: 10 mg/kg body weight each drug, intraperitoneal, 24 hour post infection; for bacteria loading in the thigh of the mice: twice 8 h apart, K. pneumoniae 1202-45-5
Protocol: In order to avoid the influence of mice's own immunity on the experiments, all mice were administered in advance with cyclophosphamide twice, four days and one day before infection, respectively, 100 mg/kg intraperitoneal injection each time, resulting in neutropenia and immune deficiency in the mice. 24 female BALB/c mice (weighing about 20 g) aged 6-8 weeks old were prepared. K. pneumoniae 1202-45-5 in logarithmic phase was re-suspended with a PBS buffer to prepare a suspension at the concentration of 1×10^7 CFU/mL; in the mice, the total amount of bacteria injected into the thigh of each mouse was 1×10^6 CFUs in the end. Then they were randomly divided into model control group (solvent treatment group), Polymyxin E treatment group (10 mg/kg body weight), SU3327 treatment group (10 mg/kg body weight), and combined treatment group of SU3327 (10 mg/kg body weight)+Polymyxin E (10 mg/kg body weight) (6 mice in each group). The treatments are detailed as follows:
(§1) Solvent control treatment group: 0.1 mL of the suspension of K. pneumoniae 1202-45-5 was intramuscularly injected into a mouse in the thigh on the right side of its abdominal cavity; one hour later, the mouse was intraperitoneally injected with 200 μL of a PBS buffer.
as §1, with “Polymyxin E” for “Solvent control”, “solution of drug, Polymyxin E (1 mg/mL); the final dose was 10 mg/kg body weight;” for “PBS buffer.”
as §1, with “SU3327” for “Solvent control”, “solution of drug, SU3327 (1 mg/mL); the final dose was 10 mg/kg body weight; […]” for “PBS buffer.”

p38α = p38α (Homo sapiens, UniProt Q16539); conditions: cited from earlier work
JNK and JIP = conditions: read-out: IC50 (protein interaction between JNK and JIP); cited from earlier work
K. pneumoniae 1202-45-5 [2] = assay: In vitro bacterial growth (bactericidal) curve; format: cell-based, Klebsiella pneumoniae; conditions: continuous treatment for 24 h, Polymyxin E 1 μg/mL, SU3327 20 μg/mL, alone or combined
Protocol: (§2) 6.0 g powdered beef extract, 1.5 g soluble starch, 17.5 g acid hydrolysate of casein, and 17.0 g agar were weighed, to which 900 mL distilled water was added, with the pH adjusted to 7.3, and the volume to 1000 mL. The mixture was subject to autoclave at 121° C. for 15 minutes, and then cooled to 50° C., poured into a sterile plate, and dried for later use.
(§3) Following culturing of K. pneumoniae 1202 and K. pneumoniae 1202-45-5 in BHI broth for 6-8 hours, the bacteria were diluted to a concentration of 10^6 colony count using a turbidimeter.
(§4) For K. pneumoniae 1202, drug treatment concentrations were set as follows: Polymyxin E (0.25 μg/mL), SU3327 (10 μg/mL), SU3327 (10 μg/mL)+Polymyxin E (0.25 μg/mL); the bacteria in control group were treated with a solvent, 0.1% DMSO. For K. pneumoniae 1202-45-5, drug treatment concentrations were set as follows: Polymyxin E (1 μg/mL), SU3327 (20 μg/mL), SU3327 (20 μg/mL)+Polymyxin E (1 μg/mL). 100 μL of a bacterial solution was applied on an agar plate at 1 h, 3 h, 6 h, 12 h and 24 h post drug treatment, respectively, and cultured for at least 16 h for a colony count.

K. pneumoniae 1202 = assay: In vitro bacterial growth (bactericidal) curve; format: cell-based, Klebsiella pneumoniae; conditions: continuous treatment for 24 h, Polymyxin E 0.25 μg/mL, SU3327 10 μg/mL, alone or combined
Protocol: as §2, §3, §4

[3] = test system: Klebsiella pneumoniae 1202 (K. pneumoniae 1202); assay: MIC / checkerboard assay; format: cell-based; conditions: for MIC after use in combination: Polymyxin E + SU3327 in combination, checkerboard; for MIC: drug alone
Text: (§5) The strains used in the tests, the strain Escherichia coli ATCC 25922 (E. coli 25922) and the strain Staphylococcus aureus ATCC 29213 (S. aureus 29213), were purchased from China Veterinary Culture Collection Center. Methicillin Resistant Staphylococcus Aureus USA300 (ATCC BAA-1717) was purchased from American Type Culture Collection. The strains used in the other experiments, the strains Escherichia coli B2 (E. coli B2), Escherichia coli GZP08-8 (E. coli GZP08-8), Klebsiella pneumoniae 1202 (K. pneumoniae 1202), Klebsiella pneumoniae 1202-45-5 (K. pneumoniae 1202-45-5), Salmonella 1-5 (Salmonella 1-5), and Shigella Y (Shigella Y) were all from National Center for Veterinary Drug Safety Evaluation of China Agricultural University, with Escherichia coli B2 (E. coli B2), Escherichia coli GZP08-8 (E. coli GZP08-8), Klebsiella pneumoniae 1202-45-5 (K. pneumoniae 1202-45-5), and Salmonella 1-5 (Salmonella 1-5) as polymyxin resistant strains containing MCR-1. Klebsiella pneumoniae 1202 (K. pneumoniae 1202) and Shigella Y (Shigella Y) were strains clinically sensitive to colistin.
(§6) The MIC of SU3327 administered alone was detected with dilution by factors. Subsequently, tests were performed with SU3327 alone, Polymyxin E (Colistin) alone, and in combination, respectively, in sterile, 96-well microplates according to checkerboard assays for the joint inhibitory activities against the above-mentioned strains, and further Fractional Inhibitory Concentration Index (FICI) was calculated. FICI of SU3327 and Polymyxin E=MIC (Polymyxin E in combination)/MIC (Polymyxin E)+MIC (SU3327 in combination)/MIC (SU3327 alone). If FICI≤0.5, synergy was identified; if 0.5<FICI≤1, an additive effect was identified; and if […], an irrelevant effect was identified.

Salmonella 1-5 = assay: MIC / checkerboard assay; format: cell-based; conditions: for MIC after use in combination: Polymyxin E + SU3327 in combination, checkerboard
Text: as §5, §6

[4] = test system: Staphylococcus aureus strain ATCC 29213 (S. aureus 29213); assay: MIC / checkerboard assay; format: cell-based; conditions: for MIC after use in combination: Polymyxin E + SU3327 in combination, checkerboard; for MIC: drug alone
Text: as §5, §6

Shigella Y = assay: MIC / checkerboard assay; format: cell-based; conditions: for MIC after use in combination: Polymyxin E + SU3327 in combination, checkerboard
Text: as §5, §6

[5] = test system: Escherichia coli GZP08-8 (E. coli GZP08-8); assay: MIC / checkerboard assay; format: cell-based; conditions: for MIC after use in combination: Polymyxin E + SU3327 in combination, checkerboard; for MIC: drug alone
Text: as §5, §6

[6] = test system: Escherichia coli strain ATCC 25922 (E. coli 25922); assay: MIC / checkerboard assay; format: cell-based; conditions: for MIC after use in combination: Polymyxin E + SU3327 in combination, checkerboard; for MIC: drug alone
Text: as §5, §6

[7] = test system: Klebsiella pneumoniae 1202-45-5 (K. pneumoniae 1202-45-5); assay: MIC / checkerboard assay; format: cell-based; conditions: for MIC after use in combination: Polymyxin E + SU3327 in combination, checkerboard; for MIC: drug alone
Text: as §5, §6

[8] = test system: Escherichia coli B2 (E. coli B2) containing MCR-1; assay: MIC / checkerboard assay; format: cell-based; conditions: for MIC after use in combination: Polymyxin E + SU3327 in combination, checkerboard; for MIC: drug alone
Text: as §5, §6

[9] = test system: Staphylococcus Aureus USA300 (S. aureus USA300); assay: MIC / checkerboard assay; format: cell-based; conditions: for MIC after use in combination: Polymyxin E + SU3327 in combination, checkerboard; for MIC: drug alone
Text: as §5, §6

JNK = conditions: substrate-competitive JNK inhibitor; cited from earlier work

p38α, sequence (Q16539 whole entry): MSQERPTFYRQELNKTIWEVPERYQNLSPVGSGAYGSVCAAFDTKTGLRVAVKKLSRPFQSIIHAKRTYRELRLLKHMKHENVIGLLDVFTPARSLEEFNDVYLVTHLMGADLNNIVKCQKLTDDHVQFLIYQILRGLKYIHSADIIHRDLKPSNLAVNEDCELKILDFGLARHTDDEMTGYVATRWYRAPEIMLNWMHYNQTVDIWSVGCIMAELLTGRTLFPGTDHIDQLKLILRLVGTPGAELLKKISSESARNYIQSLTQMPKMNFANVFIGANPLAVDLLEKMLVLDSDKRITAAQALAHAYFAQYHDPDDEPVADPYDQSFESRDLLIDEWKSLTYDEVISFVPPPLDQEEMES

Compound: Nc1nnc(Sc2ncc([N+](=O)[O-])s2)s1 [SU3327]
- activity for Akt kinase (Akt): low activity
- bacteria loading in the thigh of the mice (K. pneumoniae 1202-45-5 [1]): 6.55 Log 10 CFU/mL
- activity for p38α kinase (p38α): low activity
- IC50 (JNK and JIP): 239 nM
- bacterial colony counts (K. pneumoniae 1202-45-5 [2]): 6.65 Log 10 CFU/mL
- bacterial colony counts (K. pneumoniae 1202): 8.35 Log 10 CFU/mL
- MIC after use in combination [3]: 2.5 µg/mL
- MIC [3]: 20 µg/mL
- MIC after use in combination (Salmonella 1-5): 2.5 µg/mL
- MIC (Salmonella 1-5; drug alone): 20 µg/mL
- MIC after use in combination [4]: 2.5 µg/mL
- MIC [4]: 5 µg/mL
- MIC after use in combination (Shigella Y): 2.5 µg/mL
- MIC (Shigella Y; drug alone): 5 µg/mL
- MIC after use in combination [5]: 2.5 µg/mL
- MIC [5]: 10 µg/mL
- MIC after use in combination [6]: 5 µg/mL
- MIC [6]: 10 µg/mL
- MIC after use in combination [7]: 5 µg/mL
- MIC [7]: 20 µg/mL
- MIC after use in combination [8]: 2.5 µg/mL
- MIC [8]: 20 µg/mL
- MIC after use in combination [9]: 1.25 µg/mL
- MIC [9]: 5 µg/mL
- IC50 (JNK): 700 nM

Compound: Polymyxin E
- bacteria loading in the thigh of the mice (K. pneumoniae 1202-45-5 [1]): 6.82 Log 10 CFU/mL
- bacteria loading in the thigh compared with solvent control group (K. pneumoniae 1202-45-5 [1]): not significantly different
- bacterial colony counts (K. pneumoniae 1202-45-5 [2]): 9.3 Log 10 CFU/mL
- bacterial colony counts (K. pneumoniae 1202): 8.9 Log 10 CFU/mL
- MIC after use in combination [3]: 0.0625 µg/mL
- MIC [3]: 1 µg/mL
- MIC after use in combination (Salmonella 1-5): 1 µg/mL
- MIC after use in combination [4]: 64 µg/mL
- MIC [4]: more than 128 μg/mL
- MIC after use in combination (Shigella Y): 0.032 µg/mL
- MIC after use in combination [5]: 0.25 µg/mL
- MIC [5]: 16 µg/mL
- MIC after use in combination [6]: 0.0625 µg/mL
- MIC [6]: 0.125 µg/mL
- MIC after use in combination [7]: 0.25 µg/mL
- MIC [7]: 16 µg/mL
- MIC after use in combination [8]: 0.5 µg/mL
- MIC [8]: 8 µg/mL
- MIC after use in combination [9]: 32 µg/mL
- MIC [9]: more than 128 μg/mL
